Data from ChEMBL document CHEMBL5136974, “VHL-based PROTACs as potential therapeutic agents: Recent progress and perspectives” (Eur J Med Chem, 2022).
Values belong to the compound of their own block, whether it stands above or below them.

Legend:
[1] = system: von Hippel-Lindau disease tumor suppressor/Epidermal growth factor receptor (Homo sapiens), P00533+P40337 [L858R,T790M]; test: Protac activity against VHL/geftinib-resistant EGFR L858R/T790M double mutant in human H1975 cells relative to control; assay type: cell-based; settings: NCI-H1975
[2] = target: T1, von Hippel-Lindau disease tumor suppressor/Cyclin-dependent kinase 6 (Homo sapiens, UniProt Q00534+P40337); test: Protac activity at VHL/CDK6 in human MM1.S cells assessed as degradation of CDK6 measured after 16 hrs; assay type: cell-based
[3] = target: von Hippel-Lindau disease tumor suppressor/Cyclin-dependent kinase 4 (Homo sapiens, UniProt P11802+P40337); test: Protac activity at VHL/CDK4 in human MM1.S cells assessed as degradation of CDK4 measured after 16 hrs; assay type: cell-based
[4] = target: T1, von Hippel-Lindau disease tumor suppressor/Cyclin-dependent kinase 6; test: Protac activity at VHL/CDK6 in human MM1.S cells assessed as degradation of CDK6 at 100 nM relative to control; assay type: cell-based
MV4-11 = test: Antiproliferative activity against human MV4-11 cells; assay type: functional, cell-based
MOLM-14 = test: Antiproliferative activity against human MOLM-14 cells; assay type: functional, cell-based
[5] = target: T2, von Hippel-Lindau disease tumor suppressor/Androgen receptor (Homo sapiens, UniProt P10275+P40337); test: Protac activity at VHL/androgen receptor (unknown origin) assessed as degradation of androgen receptor; assay type: protein assay
[6] = target: T2, von Hippel-Lindau disease tumor suppressor/Androgen receptor; test: Protac activity at VHL/full length androgen receptor (unknown origin) assessed as degradation of androgen receptor
[7] = Inhibition of BRAF mutant (unknown origin); design: species or system Homo sapiens
[8] = target: Serine/threonine-protein kinase B-raf (Homo sapiens) (UniProt P15056); test: Inhibition of BRAF mutant (unknown origin) relative to control
[9] = target: T3, Receptor-interacting serine/threonine-protein kinase 2 (Homo sapiens, UniProt O43353); test: Degradation of RIPK2 (unknown origin)
[10] = target: T3, Receptor-interacting serine/threonine-protein kinase 2; test: Degradation of RIPK2 (unknown origin) at more than 10 nM relative to control
HT-29 = test: Antiproliferative activity against human HT-29 cells; assay type: functional, cell-based
SK-MEL-28 = test: Antiproliferative activity against human SK-MEL-28 cells; assay type: functional, cell-based
[11] = target: von Hippel-Lindau disease tumor suppressor/GTPase KRas (Homo sapiens, UniProt P01116+P40337, G12C); test: Protac activity at VHL/KRAS G12C mutant (unknown origin); assay type: protein assay
[12] = target: T4, von Hippel-Lindau disease tumor suppressor/Estrogen receptor (Homo sapiens, UniProt P03372+P40337); test: Protac activity at VHL/ER (unknown origin) assessed as degradation of ER
Target sequence in this assay (P03372 whole entry): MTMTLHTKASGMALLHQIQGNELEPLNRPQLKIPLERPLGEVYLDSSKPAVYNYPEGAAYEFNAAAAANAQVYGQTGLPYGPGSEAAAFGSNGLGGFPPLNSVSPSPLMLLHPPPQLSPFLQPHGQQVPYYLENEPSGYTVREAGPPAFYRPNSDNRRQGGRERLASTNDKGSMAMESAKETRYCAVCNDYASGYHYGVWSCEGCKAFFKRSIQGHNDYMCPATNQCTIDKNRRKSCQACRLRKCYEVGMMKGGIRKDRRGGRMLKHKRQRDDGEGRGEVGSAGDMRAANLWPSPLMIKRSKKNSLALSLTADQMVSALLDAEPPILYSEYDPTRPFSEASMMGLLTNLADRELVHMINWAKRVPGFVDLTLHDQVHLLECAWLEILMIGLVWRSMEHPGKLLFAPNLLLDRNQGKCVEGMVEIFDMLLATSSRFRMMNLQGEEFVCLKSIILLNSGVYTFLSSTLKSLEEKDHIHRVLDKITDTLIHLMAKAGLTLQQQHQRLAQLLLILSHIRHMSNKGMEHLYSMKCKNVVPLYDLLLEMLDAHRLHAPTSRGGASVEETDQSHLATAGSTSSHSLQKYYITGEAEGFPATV
Target sequence in this assay (P40337 whole entry): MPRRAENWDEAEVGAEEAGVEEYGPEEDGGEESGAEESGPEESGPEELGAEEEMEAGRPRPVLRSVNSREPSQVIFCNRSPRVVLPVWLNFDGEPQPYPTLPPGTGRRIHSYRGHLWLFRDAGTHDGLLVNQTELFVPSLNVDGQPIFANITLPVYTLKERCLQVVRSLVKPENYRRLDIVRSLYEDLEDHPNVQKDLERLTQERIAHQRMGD

[13] = target: T4, von Hippel-Lindau disease tumor suppressor/Estrogen receptor; test: Protac activity at VHL/ER (unknown origin) assessed as degradation of ER relative to control
Target sequence in this assay (P03372 whole entry, looked up): as the sequence (P03372 whole entry) above
Target sequence in this assay (P40337 whole entry, looked up): as the sequence (P40337 whole entry) above

MCF7 [14] = test: Antiproliferative activity against human MCF7 cells; assay type: functional, cell-based
MCF7 [15] = test: Antiproliferative activity against human MCF7 cells relative to control; assay type: functional
[16] = target: T5, von Hippel-Lindau disease tumor suppressor/Serine/threonine-protein kinase Sgk3 (Homo sapiens) (UniProt Q96BR1+P40337); test: Protac activity at VHL/SGK3 in human HEK293 cells at […] measured within 2 hrs relative to control; assay type: cell-based
[17] = target: T5, von Hippel-Lindau disease tumor suppressor/Serine/threonine-protein kinase Sgk3 (Homo sapiens); test: Protac activity at VHL/SGK3 in human HEK293 cells at […] measured within 8 hrs relative to control; assay type: cell-based
[18] = target: Dihydroorotate dehydrogenase (quinone), mitochondrial (Homo sapiens, UniProt Q02127); test: Inhibition of DHODH (unknown origin)
[19] = target: T6, von Hippel-Lindau disease tumor suppressor/Epidermal growth factor receptor (Homo sapiens, UniProt P00533+P40337); test: Protac activity against VHL/EGFR deletion 19 mutant in human HCC827 cells; assay type: cell-based
[20] = system: von Hippel-Lindau disease tumor suppressor/Epidermal growth factor receptor (Homo sapiens), P00533+P40337 [UNDEFINED MUTATION]; test: Protac activity against VHL/EGFR deletion 19 mutant in human HCC827 cells relative to control; assay type: cell-based
[21] = target: von Hippel-Lindau disease tumor suppressor/Epidermal growth factor receptor (Homo sapiens, UniProt P00533+P40337, L858R); test: Protac activity against VHL/EGFR L858R mutant in human […] cells; assay type: cell-based
[22] = system: von Hippel-Lindau disease tumor suppressor/Epidermal growth factor receptor (Homo sapiens), P00533+P40337 [L858R]; test: Protac activity against VHL/EGFR L858R mutant in human […] cells relative to control; assay type: cell-based
[23] = target: von Hippel-Lindau disease tumor suppressor/Oxysterols receptor LXR-beta (Homo sapiens, UniProt P40337+P55055); test: Protac activity at VHL/LXR (unknown origin) by TR-FRET assay
Polycomb protein EED = Polycomb protein EED (Homo sapiens, UniProt O75530); test: Binding affinity to EED (unknown origin) assessed as dissociation constant
[24] = Inhibition of PRC2 (unknown origin); design: species or system Homo sapiens
[25] = target: von Hippel-Lindau disease tumor suppressor/3-hydroxy-3-methylglutaryl-coenzyme A reductase (Homo sapiens, UniProt P04035+P40337); test: Protac activity at VHL/HMGCR in Insig-silenced human HepG2 cells; assay type: cell-based
[26] = target: ALK tyrosine kinase receptor (Homo sapiens, UniProt Q9UM73); test: Inhibition of ALK (unknown origin) incubated for 1 hr by HTRF assay
[27] = target: NPM/ALK (Nucleophosmin/ALK tyrosine kinase receptor) (Homo sapiens) (UniProt Q9UM73+P06748); test: Inhibition of NPM-ALK in human SU-DHL-1 cells at […] relative to control; assay type: cell-based
[28] = target: von Hippel-Lindau disease tumor suppressor/Focal adhesion kinase 1 (Homo sapiens) (UniProt Q05397+P40337); test: Protac activity at VHL/FAK in serum-free treated human PC-3 cells assessed as degradation of FAK measured after 24 hrs relative to control; assay type: cell-based
[29] = target: T6, von Hippel-Lindau disease tumor suppressor/Epidermal growth factor receptor; test: Protac activity against VHL/EGFR in human OVCAR-8 cells assessed as degradation of EGFR; assay type: cell-based
[30] = target: T6, von Hippel-Lindau disease tumor suppressor/Epidermal growth factor receptor; test: Protac activity against VHL/EGFR in human OVCAR-8 cells assessed as degradation of EGFR relative to control; assay type: cell-based
SK-BR-3 = test: Antiproliferative activity against human SK-BR-3 cells; assay type: functional, cell-based

Dihydroorotate dehydrogenase (quinone), mitochondrial, sequence (Q02127 whole entry): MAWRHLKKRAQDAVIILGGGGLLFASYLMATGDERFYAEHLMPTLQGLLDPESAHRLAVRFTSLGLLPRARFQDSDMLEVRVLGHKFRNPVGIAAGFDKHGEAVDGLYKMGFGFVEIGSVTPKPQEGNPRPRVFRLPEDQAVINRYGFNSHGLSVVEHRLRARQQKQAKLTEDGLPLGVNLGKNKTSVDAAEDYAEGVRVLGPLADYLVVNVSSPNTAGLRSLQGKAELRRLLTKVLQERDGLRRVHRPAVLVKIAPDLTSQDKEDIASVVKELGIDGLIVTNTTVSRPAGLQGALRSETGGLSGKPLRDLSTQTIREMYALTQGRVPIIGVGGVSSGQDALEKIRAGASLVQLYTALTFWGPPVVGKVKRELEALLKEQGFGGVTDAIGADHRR
T5 sequence (P40337 whole entry, looked up): as the sequence (P40337 whole entry) above
T5 sequence (Q96BR1 whole entry, looked up): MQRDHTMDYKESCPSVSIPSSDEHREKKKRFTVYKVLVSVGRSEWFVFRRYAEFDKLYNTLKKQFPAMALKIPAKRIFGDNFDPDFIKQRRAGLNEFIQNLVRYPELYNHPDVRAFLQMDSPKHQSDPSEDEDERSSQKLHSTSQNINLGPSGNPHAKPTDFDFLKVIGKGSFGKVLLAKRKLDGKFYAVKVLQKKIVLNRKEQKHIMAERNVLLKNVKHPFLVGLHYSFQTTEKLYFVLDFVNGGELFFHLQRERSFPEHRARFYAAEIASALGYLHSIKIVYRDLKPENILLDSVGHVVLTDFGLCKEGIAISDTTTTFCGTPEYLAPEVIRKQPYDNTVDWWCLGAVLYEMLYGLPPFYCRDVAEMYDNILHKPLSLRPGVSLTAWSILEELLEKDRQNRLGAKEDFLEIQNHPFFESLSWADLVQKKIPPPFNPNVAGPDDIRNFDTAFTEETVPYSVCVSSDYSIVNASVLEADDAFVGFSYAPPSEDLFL
Polycomb protein EED, sequence (O75530 whole entry): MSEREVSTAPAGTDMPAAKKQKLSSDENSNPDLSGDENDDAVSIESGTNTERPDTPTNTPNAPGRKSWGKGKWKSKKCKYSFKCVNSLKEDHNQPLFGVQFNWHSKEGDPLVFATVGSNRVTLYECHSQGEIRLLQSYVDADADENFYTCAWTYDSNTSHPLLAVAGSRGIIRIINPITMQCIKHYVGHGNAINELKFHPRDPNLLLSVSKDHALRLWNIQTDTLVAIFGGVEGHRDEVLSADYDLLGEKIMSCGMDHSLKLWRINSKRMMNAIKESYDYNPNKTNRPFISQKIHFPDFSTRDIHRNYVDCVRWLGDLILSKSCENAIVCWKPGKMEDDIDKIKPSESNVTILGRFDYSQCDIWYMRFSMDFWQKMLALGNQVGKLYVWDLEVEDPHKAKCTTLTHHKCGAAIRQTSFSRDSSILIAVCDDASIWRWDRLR
von Hippel-Lindau disease tumor suppressor/Oxysterols receptor LXR-beta, sequence (P55055 whole entry): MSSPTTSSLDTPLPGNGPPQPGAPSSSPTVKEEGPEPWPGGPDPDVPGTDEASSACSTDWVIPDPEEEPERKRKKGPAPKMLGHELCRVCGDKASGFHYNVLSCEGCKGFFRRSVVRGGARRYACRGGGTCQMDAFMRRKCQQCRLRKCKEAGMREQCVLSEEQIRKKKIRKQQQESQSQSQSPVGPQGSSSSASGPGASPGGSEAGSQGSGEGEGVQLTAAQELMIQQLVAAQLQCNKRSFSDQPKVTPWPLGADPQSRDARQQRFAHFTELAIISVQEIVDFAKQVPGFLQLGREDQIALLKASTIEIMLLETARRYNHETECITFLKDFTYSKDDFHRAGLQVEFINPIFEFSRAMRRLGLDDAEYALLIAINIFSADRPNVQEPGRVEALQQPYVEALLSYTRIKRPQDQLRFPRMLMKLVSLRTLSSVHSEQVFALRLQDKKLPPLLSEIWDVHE
von Hippel-Lindau disease tumor suppressor/Oxysterols receptor LXR-beta, sequence (P40337 whole entry): as the sequence (P40337 whole entry) above
T3 sequence (O43353 whole entry): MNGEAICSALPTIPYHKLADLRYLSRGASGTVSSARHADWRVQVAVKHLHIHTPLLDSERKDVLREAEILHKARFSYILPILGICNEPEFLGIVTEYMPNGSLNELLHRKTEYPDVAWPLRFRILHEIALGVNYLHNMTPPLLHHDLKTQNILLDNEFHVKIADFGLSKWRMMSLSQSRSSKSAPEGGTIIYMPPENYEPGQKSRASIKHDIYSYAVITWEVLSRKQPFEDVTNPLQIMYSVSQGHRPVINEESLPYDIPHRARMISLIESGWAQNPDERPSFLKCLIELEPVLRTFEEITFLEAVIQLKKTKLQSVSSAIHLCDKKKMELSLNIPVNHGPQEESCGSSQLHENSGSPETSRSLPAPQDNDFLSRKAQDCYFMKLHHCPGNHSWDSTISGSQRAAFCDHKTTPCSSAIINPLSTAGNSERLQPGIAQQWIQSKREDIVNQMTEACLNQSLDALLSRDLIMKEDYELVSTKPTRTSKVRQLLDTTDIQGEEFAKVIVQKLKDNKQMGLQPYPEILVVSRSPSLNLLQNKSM
von Hippel-Lindau disease tumor suppressor/Cyclin-dependent kinase 4, sequence (P11802 whole entry): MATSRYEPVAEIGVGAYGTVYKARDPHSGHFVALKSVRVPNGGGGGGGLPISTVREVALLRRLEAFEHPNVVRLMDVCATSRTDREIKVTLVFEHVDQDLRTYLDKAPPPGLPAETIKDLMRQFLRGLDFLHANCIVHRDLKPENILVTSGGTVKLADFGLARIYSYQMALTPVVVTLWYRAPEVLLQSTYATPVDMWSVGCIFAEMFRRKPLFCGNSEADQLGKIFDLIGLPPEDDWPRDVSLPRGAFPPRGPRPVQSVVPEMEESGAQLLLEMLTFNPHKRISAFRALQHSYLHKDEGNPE
von Hippel-Lindau disease tumor suppressor/Cyclin-dependent kinase 4, sequence (P40337 whole entry): as the sequence (P40337 whole entry) above

Structure (SMILES): Cc1ncsc1-c1ccc(CNC(=O)[C@@H]2C[C@@H](O)CN2C(=O)[C@@H](NC(=O)CCCCCOCCCCOCCCCOc2cc3ncnc(Nc4ccc(F)c(Cl)c4)c3cc2NC(=O)/C=C/CN(C)C)C(C)(C)C)cc1
- Emax [1]: 79.1%

Structure (SMILES): CC(=O)c1c(C)c2cnc(Nc3ccc(N4CCN(CCOCCOCCOc5cc(-c6scnc6C)ccc5CNC(=O)[C@@H]5C[C@@H](O)CN5C(=O)[C@@H](NC(=O)C5(F)CC5)C(C)(C)C)CC4)cn3)nc2n(C2CCCC2)c1=O
- DC50 [2]: 5.1 nM
- DC50 [3]: 20 nM
- Activity [4]: > 95%

Structure (SMILES): Cc1ncsc1-c1ccc([C@H](C)NC(=O)[C@@H]2C[C@@H](O)CN2C(=O)[C@@H](NC(=O)CCCCCNC(=O)COc2ccccc2-c2csc(N3CCOCC3)n2)C(C)(C)C)cc1
- DC50 [5]: 370 nM
- DC50 [6]: 2000 nM

Structure (SMILES): CCCS(=O)(=O)Nc1ccc(F)c(C(=O)c2c[nH]c3ncc(-c4ccc(N5CCN(CC(=O)N[C@H](C(=O)N6C[C@H](O)C[C@H]6C(=O)NCc6ccc(-c7scnc7C)cc6)C(C)(C)C)CC5)cc4)cc23)c1F
- IC50 [7]: 6.8 nM
- Emax [8]: > 95%

Structure (SMILES): Cc1ncsc1-c1ccc([C@H](C)NC(=O)[C@@H]2C[C@@H](OC(=O)CCCCn3cc(CNC(=O)CC[C@H](NC(=O)c4ccc(NCc5cnc6nc(N)[nH]c(=O)c6n5)cc4)C(=O)O)nn3)CN2C(=O)[C@@H](NC(=O)CCCCCCCCCCNCCCONC(=O)c2ccc(F)c(F)c2Nc2ccc(I)cc2F)C(C)(C)C)cc1
- IC50 (HT-29): 436 nM
- IC50 (SK-MEL-28): 390 nM

Structure (SMILES): C=C(F)C(=O)N1CCN(c2nc(OC[C@@H]3CCCN3CCCOCCC(=O)N[C@H](C(=O)N3C[C@H](O)C[C@H]3C(=O)NCc3ccc(-c4scnc4C)cc3)C(C)(C)C)nc3c2CCN(c2cccc4cccc(Cl)c24)C3)C[C@@H]1CC#N
- DC50 [11]: 250 nM

Structure (SMILES): Cc1ncsc1-c1ccc([C@H](C)NC(=O)[C@@H]2C[C@@H](O)CN2C(=O)[C@@H](NC(=O)CCCCOc2ccc(CCNC(=O)c3ccc(C(=O)c4c(-c5ccc(O)cc5)sc5cc(O)ccc45)cc3)cc2)C(C)(C)C)cc1
- DC50 [12]: 1.1 nM
- Emax [13]: 98%
- IC50 (MCF7 [14]): 13.2 nM
- Imax (MCF7 [15]): 69%

Structure (SMILES): Cc1ncsc1-c1ccc([C@H](C)NC(=O)[C@@H]2C[C@@H](O)CN2C(=O)[C@@H](NC(=O)CCCCOc2ccc(/C=N/NC(=O)c3ccc(C(=O)c4c(-c5ccc(O)cc5)sc5cc(O)ccc45)cc3)cc2)C(C)(C)C)cc1 (stereo in doubt)
- DC50 [12]: 10 nM
- Emax [13]: 95%

Structure (SMILES): COc1cc2ncnc(Nc3ccc(F)c(Cl)c3)c2cc1OCCCCCOCCOCCC(=O)N[C@H](C(=O)N1C[C@H](O)C[C@H]1C(=O)NCc1ccc(-c2scnc2C)cc1)C(C)(C)C
- DC50 [19]: 11.7 nM
- Emax [20]: 98.9%
- DC50 [21]: 22.3 nM
- Emax [22]: 96.6%

Structure (SMILES): Cc1nc(CCC(=O)NCCOc2ccc(OCC(=O)N[C@H](C(=O)N3C[C@H](O)C[C@H]3C(=O)NCc3ccc(-c4scnc4C)cc3)C(C)(C)C)cc2)ccc1-c1cnc(NCc2c(F)ccc3c2CCO3)n2cnnc12
- Kd (Polycomb protein EED): 1 nM
- pIC50 [24]: 8.1

Structure (SMILES): O=C(O)Cc1cccc(OCCCN(Cc2cccc(C(F)(F)F)c2Cl)CC(c2ccccc2)c2ccccc2)c1
- EC50 [23]: 20 nM

Structure (SMILES): Cc1nc(CCC(=O)NCCCCC(=O)N[C@H](C(=O)N2C[C@H](O)C[C@H]2C(=O)NCc2ccc(-c3scnc3C)cc2)C(C)(C)C)ccc1-c1cnc(NCc2c(F)ccc3c2CCO3)n2cnnc12
- Kd (Polycomb protein EED): 1 nM
- pIC50 [24]: 8.1

Structure (SMILES): Cc1ncsc1-c1ccc(CNC(=O)[C@@H]2C[C@@H](O)CN2C(=O)[C@@H](NC(=O)CCCCCCCCCCNC(=O)O[C@H]2C[C@@H](C)C=C3C=C[C@H](C)[C@H](CC[C@@H](O)C[C@@H](O)CC(=O)O)[C@H]32)C(C)(C)C)cc1
- DC50 [25]: 120 nM

Other lines, results leading:

- IC50 (MV4-11): 0.6 nM
- IC50 (MOLM-14): 0.6 nM
Structure (SMILES): Cc1ncsc1-c1ccc(CNC(=O)[C@@H]2C[C@@H](O)CN2C(=O)[C@@H](NC(=O)CCOCCOCCOc2ccc3c(c2)sc2nc(-c4ccc(NC(=O)Nc5cc(C(C)(C)C)on5)cc4)cn23)C(C)(C)C)cc1

- DC50 [9]: 1.4 nM
- Emax [10]: > 95%
Structure (SMILES): Cc1ncsc1-c1ccc(CNC(=O)[C@@H]2C[C@@H](O)CN2C(=O)[C@@H](NC(=O)COCCOCCOCCOCCOc2cc3nccc(Nc4ccc5scnc5c4)c3cc2S(=O)(=O)C(C)(C)C)C(C)(C)C)cc1

- Activity [16]: 50%
- Activity [17]: 80%
Structure (SMILES): Cc1ccc(F)c(S(=O)(=O)Nc2ccc(-c3nc(OC[C@H]4CN(CCCCCCOCCOCCOCC(=O)N[C@H](C(=O)N5C[C@H](O)C[C@H]5C(=O)NCc5ccc(-c6scnc6C)cc5)C(C)(C)C)CCO4)c4cn[nH]c4n3)cc2)c1

- IC50 [18]: 93 nM
Structure (SMILES): Cc1ncsc1-c1ccc(CNC(=O)[C@@H]2C[C@@H](O)CN2C(=O)[C@@H](NC(=O)OCCOCCOCCOc2ccc(-c3ccc(-c4nc5ccc(F)cc5c(C(=O)O)c4C)cc3)cc2)C(C)(C)C)cc1

- IC50 [18]: > 200000 nM
Structure (SMILES): COC(=O)c1c(C)c(-c2ccc(-c3ccc(OCCOCCOCCOC(=O)N[C@H](C(=O)N4C[C@H](O)C[C@H]4C(=O)NCc4ccc(-c5scnc5C)cc4)C(C)(C)C)cc3)cc2)nc2ccc(F)cc12

- EC50 [23]: 31 nM
Structure (SMILES): Cc1ncsc1-c1ccc(CNC(=O)[C@@H]2C[C@@H](O)CN2C(=O)[C@@H](NC(=O)COCCOCCOCCOCCOCCNC(=O)Cc2cccc(OCCCN(Cc3cccc(C(F)(F)F)c3Cl)CC(c3ccccc3)c3ccccc3)c2)C(C)(C)C)cc1

- IC50 [26]: 7 nM
- inhibition [27]: 90%
Structure (SMILES): Cc1cc(Nc2ncc(Cl)c(Nc3ccccc3S(=O)(=O)C(C)C)n2)c(OC(C)C)cc1C1CCN(C(=O)CCCC(=O)N[C@H](C(=O)N2C[C@H](O)C[C@H]2C(=O)NCc2ccc(-c3scnc3C)cc2)C(C)(C)C)CC1

- Emax [28]: 99%
Structure (SMILES): Cc1ncsc1-c1ccc(CNC(=O)[C@@H]2C[C@@H](O)CN2C(=O)[C@@H](NC(=O)CCOCCOc2ccc(Nc3ncc(C(F)(F)F)c(NCc4cccc(N(C)S(C)(=O)=O)c4)n3)cc2)C(C)(C)C)cc1

- DC50 [29]: 39.2 nM
- Emax [30]: 97.6%
- IC50 (SK-BR-3): 102 nM
Structure (SMILES): Cc1ncsc1-c1ccc(CNC(=O)[C@@H]2C[C@@H](O)CN2C(=O)[C@@H](NC(=O)COCCOCCOc2ccc(-c3ccc4ncnc(Nc5ccc(OCc6cccc(F)c6)c(Cl)c5)c4c3)cc2)C(C)(C)C)cc1
